Laboratory results as given in US11613522B2, “Herbicidally active 3-phenylisoxazoline-5-carboxamides of tetrahydro- and dihydrofurancarboxamides” (BAYER AKTIENGESELLSCHAFT, priority 2017, dated 2023).

Legend:
Format in all cases: in vivo
Avena fatua [1] = assay: Pre-emergence herbicidal activity against AVEFA; conditions: dosage 80 g/ha, scored visually after about 3 weeks vs untreated controls
How it was run: (§1)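 Seeds sown in pots and covered with soil; compounds formulated as WP or EC applied to the soil surface as aqueous suspension or emulsion with 0.5% additive at 600 l/ha water. Pots held in greenhouse; activity scored visually about 3 weeks later as % versus untreated controls (100% = dead).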

Setaria viridis [2] = assay: Pre-emergence herbicidal activity against SETVI; conditions: dosage 80 g/ha, scored visually after about 3 weeks vs untreated controls
How it was run: as §1

Echinochloa crus-galli [3] = assay: Post-emergence herbicidal activity against ECHCG; conditions: dosage 320 g/ha, rated visually after about 3 weeks
How it was run: (§2)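 Post-emergence foliar spray of wettable-powder or emulsion-concentrate formulations (0.5% additive, 600 l/ha water) onto one-leaf-stage greenhouse plants. Percent activity scored by eye after ~3 weeks against untreated plants; 0% equals control growth, 100% equals plant death.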

Stellaria media [4] = assay: Post-emergence herbicidal activity against STEME; conditions: dosage 320 g/ha, rated visually after about 3 weeks
How it was run: as §2

Hordeum murinum [5] = assay: Pre-emergence herbicidal activity against HORMU; conditions: dosage 80 g/ha
How it was run: as §1

Abutilon theophrasti = assay: Post-emergence herbicidal activity against ABUTH; conditions: dosage 320 g/ha, rated visually after about 3 weeks
How it was run: as §2

Amaranthus retroflexus [6] = assay: Post-emergence herbicidal activity against AMARE; conditions: dosage 320 g/ha, rated visually after about 3 weeks
How it was run: as §2

Veronica persica [7] = assay: Post-emergence herbicidal activity against VERPE; conditions: dosage 320 g/ha, rated visually after about 3 weeks
How it was run: as §2

Amaranthus retroflexus [8] = assay: Pre-emergence herbicidal activity against AMARE; conditions: dosage 80 g/ha, scored visually after about 3 weeks vs untreated controls
How it was run: as §1

Polygonum convolvulus [9] = assay: Pre-emergence herbicidal activity against POLCO; conditions: dosage 80 g/ha, scored visually after about 3 weeks vs untreated controls
How it was run: as §1

[10] = Pre-emergence herbicidal action against harmful plants (summary of the tables); conditions: 504 h, application rate of 0.08 kg of active substance or less per hectare, read-out: herbicidal action, pre-emergence treatment (very good activity)
Source text: (§3) 1. Pre-emergence herbicidal action against harmful plants and crop plant compatibility Seeds of monocotyledonous and dicotyledonous weed plants and crop plants are placed in plastic or wood fiber pots and covered with soil. The compounds of the invention, formulated in the form of wettable powders (WP) or as emulsion concentrates (EC), are then applied onto the surface of the covering soil as aqueous suspension or emulsion with addition of 0.5% additive at a water application rate of 600 l/ha (converted). After the treatment, the pots are placed in a greenhouse and kept under good growth conditions for the trial plants. After about 3 weeks, the effect of the preparations is scored visually in comparison with untreated controls as percentages. For example, 100% activity=the plants have died, 0% activity=like control plants.
As shown by the results, compounds according to the invention such as, for example, the compounds No. I-02 and other compounds from the tables (I-05, I-10, I-11, I-12, I-13, I-14, I-15, I-16, I-17, I-18, I-19, I-20, I-21, I-22, I-23, I-24, I-25, I-26, I-27, I-28, I-29) have, when used for pre-emergence treatment, very good activity (80% to 100% herbicidal action) against harmful plants such as Abutilon theophrasti, Alopecurus myosuroides, Amaranthus retroflexus, Avena fatua, Cyperus esculentus, Echinochloa crus-galli, Hordeum murinum, Lolium rigidum, Pharbitis purpurea, Polygonum convolvulus, Setaria viridis, Stellaria media, Veronica persica and Viola tricolor at an application rate of 0.08 kg of active substance or less per hectare.

Pharbitis purpurea [11] = assay: Post-emergence herbicidal activity against PHBPU; conditions: dosage 320 g/ha, rated visually after about 3 weeks
How it was run: as §2

Veronica persica [12] = assay: Pre-emergence herbicidal activity against VERPE; conditions: dosage 80 g/ha
How it was run: as §1

Lolium rigidum [13] = assay: Pre-emergence herbicidal activity against LOLRI; conditions: dosage 80 g/ha, scored visually after about 3 weeks vs untreated controls
How it was run: as §1

Viola tricolor [14] = assay: Pre-emergence herbicidal activity against VIOTR; conditions: dosage 80 g/ha, scored visually after about 3 weeks vs untreated controls
How it was run: as §1

Alopecurus myosuroides [15] = assay: Pre-emergence herbicidal activity against ALOMY; conditions: dosage 80 g/ha, scored visually after about 3 weeks vs untreated controls
How it was run: as §1

Echinochloa crus-galli [16] = assay: Pre-emergence herbicidal activity against ECHCG; conditions: dosage 80 g/ha, scored visually after about 3 weeks vs untreated controls
How it was run: as §1

Stellaria media [17] = assay: Pre-emergence herbicidal activity against STEME; conditions: dosage 80 g/ha, scored visually after about 3 weeks vs untreated controls
How it was run: as §1

Polygonum convolvulus [18] = assay: Post-emergence herbicidal activity against POLCO; conditions: dosage 320 g/ha, rated visually after about 3 weeks
How it was run: as §2

Alopecurus myosuroides [19] = assay: Post-emergence herbicidal activity against ALOMY; conditions: dosage 320 g/ha, rated visually after about 3 weeks
How it was run: as §2

Avena fatua [20] = assay: Post-emergence herbicidal activity against AVEFA; conditions: dosage 320 g/ha, rated visually after about 3 weeks
How it was run: as §2

Pharbitis purpurea [21] = assay: Pre-emergence herbicidal activity against PHBPU; conditions: dosage 80 g/ha, scored visually after about 3 weeks vs untreated controls
Source text: as §3, with “control plants. [table]” for “control plants.”

Viola tricolor [22] = assay: Post-emergence herbicidal activity against VIOTR; conditions: dosage 320 g/ha, rated visually after about 3 weeks
How it was run: as §2

Lolium rigidum [23] = assay: Post-emergence herbicidal activity against LOLRI; conditions: dosage 320 g/ha, rated visually after about 3 weeks
How it was run: as §2

Hordeum murinum [24] = assay: Post-emergence herbicidal activity against HORMU; conditions: dosage 320 g/ha, rated visually after about 3 weeks
How it was run: as §2

Setaria viridis [25] = assay: Post-emergence herbicidal activity against SETVI; conditions: dosage 320 g/ha, rated visually after about 3 weeks
How it was run: as §2

C=C[C@]1(C(=O)N[C@@H]2CO[C@H](C(=O)NS(=O)(=O)C(F)(F)F)C2)CC(c2cc(F)cc(F)c2)=NO1 (mixture of isomers) [Example I-14, (5S)-3-(3,5-difluorophenyl)-N-[cis-5-(trifluoromethylsulfonylcarbamoyl)tetrahydrofuran-3-yl]-5-vinyl-4H-isoxazole-5-carboxamide]
pest or weed control at 80 g/ha (Avena fatua [1]; Avena fatua, 504 h, read-out: Pre-emergence herbicidal activity in % against AVEVA (AVEFA)): 90% | pest or weed control at 80 g/ha (Setaria viridis [2]; Setaria viridis, 504 h): 100% | pest or weed control at 320 g/ha (Echinochloa crus-galli [3]; Echinochloa crus-galli, 504 h): 80% | pest or weed control at 320 g/ha (Stellaria media [4]; Stellaria media, 504 h): 90% | pest or weed control at 80 g/ha (Hordeum murinum [5]; Hordeum murinum, 504 h): 90% | pest or weed control at 320 g/ha (Abutilon theophrasti; Abutilon theophrasti, 504 h): 90% | pest or weed control at 320 g/ha (Amaranthus retroflexus [6]; Amaranthus retroflexus, 504 h): 80% | pest or weed control at 320 g/ha (Veronica persica [7]; Veronica persica, 504 h): 90% | pest or weed control at 80 g/ha (Amaranthus retroflexus [8]; Amaranthus retroflexus, 504 h): 100% | pest or weed control at 80 g/ha (Polygonum convolvulus [9]; Fallopia convolvulus, 504 h): 100% | pest or weed control at 80 g/ha [10]: 80 to 100% | pest or weed control at 320 g/ha (Pharbitis purpurea [11]; Ipomoea purpurea, 504 h): 80% | pest or weed control at 80 g/ha (Veronica persica [12]; Veronica persica, 504 h): 90% | pest or weed control at 80 g/ha (Lolium rigidum [13]; Lolium rigidum, 504 h): 100% | pest or weed control at 80 g/ha (Viola tricolor [14]; Viola tricolor, 504 h): 100% | pest or weed control at 80 g/ha (Alopecurus myosuroides [15]; Alopecurus myosuroides, 504 h): 100% | pest or weed control at 80 g/ha (Echinochloa crus-galli [16]; Echinochloa crus-galli, 504 h): 100% | pest or weed control at 80 g/ha (Stellaria media [17]; Stellaria media, 504 h): 90% | pest or weed control at 320 g/ha (Polygonum convolvulus [18]; Fallopia convolvulus, 504 h): 80% | pest or weed control at 320 g/ha (Alopecurus myosuroides [19]; Alopecurus myosuroides, 504 h): 90% | pest or weed control at 320 g/ha (Avena fatua [20]; Avena fatua, 504 h): 80% | Pre-emergence herbicidal activity in % against PHBPU (Pharbitis purpurea [21]): 90% | pest or weed control at 320 g/ha (Viola tricolor [22]; Viola tricolor, 504 h): 100% | pest or weed control at 320 g/ha (Lolium rigidum [23]; Lolium rigidum, 504 h): 90% | pest or weed control at 320 g/ha (Hordeum murinum [24]; Hordeum murinum, 504 h): 80%

C=C[C@]1(C(=O)N[C@@H]2CO[C@H](C(=O)NCC(=O)OC)C2)CC(c2cc(F)cc(F)c2)=NO1 [Example I-21]
Pre-emergence herbicidal activity in % against AVEVA (AVEFA) (Avena fatua [1]): 100% | Pre-emergence herbicidal activity in % against SETVI (Setaria viridis [2]): 100% | Post-emergence herbicidal activity in % against ECHCG (Echinochloa crus-galli [3]): 90% | Post-emergence herbicidal activity in % against SETVI (Setaria viridis [25]): 90% | Post-emergence herbicidal activity in % against STEME (Stellaria media [4]): 90% | Pre-emergence herbicidal activity in % against HORMU (Hordeum murinum [5]): 90% | Post-emergence herbicidal activity in % against ABUTH (Abutilon theophrasti): 90% | Post-emergence herbicidal activity in % against AMARE (Amaranthus retroflexus [6]): 90% | Post-emergence herbicidal activity in % against VERPE (Veronica persica [7]): 80% | Pre-emergence herbicidal activity in % against AMARE (Amaranthus retroflexus [8]): 100% | Pre-emergence herbicidal activity in % against POLCO (Polygonum convolvulus [9]): 100% | Post-emergence herbicidal activity in % against PHBPU (Pharbitis purpurea [11]): 90% | Pre-emergence herbicidal activity in % against VERPE (Veronica persica [12]): 90% | Pre-emergence herbicidal activity in % against LOLRI (Lolium rigidum [13]): 100% | Pre-emergence herbicidal activity in % against VIOTR (Viola tricolor [14]): 100% | Pre-emergence herbicidal activity in % against ALOMY (Alopecurus myosuroides [15]): 100% | Pre-emergence herbicidal activity in % against ECHCG (Echinochloa crus-galli [16]): 100% | Pre-emergence herbicidal activity in % against STEME (Stellaria media [17]): 90% | Post-emergence herbicidal activity in % against POLCO (Polygonum convolvulus [18]): 90% | Post-emergence herbicidal activity in % against ALOMY (Alopecurus myosuroides [19]): 90% | Post-emergence herbicidal activity in % against AVEFA (Avena fatua [20]): 100% | Pre-emergence herbicidal activity in % against PHBPU (Pharbitis purpurea [21]): 90% | Post-emergence herbicidal activity in % against VIOTR (Viola tricolor [22]): 90% | Post-emergence herbicidal activity in % against LOLRI (Lolium rigidum [23]): 90% | Post-emergence herbicidal activity in % against HORMU (Hordeum murinum [24]): 100%
